Values quoted from earlier work, collected in patent US4230714A, “Imidazole therapeutic agents” (Pfizer Inc., priority 1978, dated 1980).

Key:
[1] = system: human blood platelet aggregation; conditions: variety of aggregating agents
[2] = system: platelet clumping and embolization in the lungs; conditions: rabbit, intravenous arachidonic acid
[3] = system: aggregation of platelets; conditions: rat, extra corporeal loop of the abdominal aorta

## CC(=O)Oc1ccccc1C(=O)O [aspirin]
[1]
  inhibitory activity against platelet aggregation in vitro: show inhibitory activity in vitro
[2]
  protection from the lethal effect of arachidonic acid injection: protect the rabbit from the lethal effect of the injection

## O=C1C(CC[S+]([O-])c2ccccc2)C(=O)N(c2ccccc2)N1c1ccccc1 (stereo not shown) [sulphinpyrazone]
[1]
  inhibitory activity against platelet aggregation in vitro: show inhibitory activity in vitro
[3]
  prevention of platelet aggregation in vivo: prevent the aggregation of platelets
